Laboratory results reported in patent publication US7879835B2 (Korea Research Institute of Chemical Technology, priority 2004, dated 2011).

How the values were obtained:
[1] = test system: osteoclast (TRAP-positive multinuclear cell) formation; assay: Inhibitory effect on osteoclast formation (TRAP staining); type: cell-based, mice; details: compared to control; for inhibition at 0.1 µM / inhibition at 0.3 µM / inhibition at 1 µM / inhibition at 3 µM: Mus musculus, Osteoclast, read-out: Osteoclast formation inhibitory effects (%); for inhibition at 0.1 µM: 0.1 μM (Table 4b); for inhibition at 0.3 µM: 0.3 μM (Table 4b); for inhibition at 1 µM: 1 μM (Table 4b); for inhibition at 3 µM: 3 μM (Table 4b); for Osteoclast formation inhibitory effects (%): 8 days culture with M-CSF and RANKL
Experimental: The inhibitory activities of the alpha-arylmethoxyacrylate derivatives prepared in the above Examples on the proliferation of osteoclasts were examined as follows.
First, a bone marrow sample containing osteoclast pregenitor cells was isolated as follows. After sacrificing 7 to 9 week-old female mice by cervical dislocation, femur and tibia were excised aseptically while removing soft tissues attached thereto, After cutting both ends of the long bones, 1 ml of an enzyme solution containing 0.1% collagenase (Gibco), 0.05% trypsin and 0.5 mM EDTA (Gibco) was injected into the bone marrow cavity at one end using a syringe with a 26-gauge needle, and the bone marrow was then collected. After stirring the recovered bone marrow for 30 min, the precipitated bone marrow cells were collected, and cultured in α-minimum essential medium (α-MEM) supplemented with 10% FBS for 24 hrs. Then, non-adherent cells, which are osteoclast pregenitors, were aliquoted onto a culture plate at a density of 2×10^5 cells per well, and cultured for 8 days in α-MEM supplemented with 20 ng/ml of macrophage-colony stimulating factor (M-CSF, Peprotech, USA), 30 ng/ml RANKL (Peprotech, USA), and 0.3, 1.0 or 3 μM of the compounds of the Examples. Control cells were cultured at the same condition except not adding the compounds of the Examples.
After cell culture for 8 days, the adherent cells were washed with PBS and fixed with citrate-acetate-formaldehyde for 5 min. The fixed cells were incubated at 37° C. for 1 hr in acetate buffer (pH 5.0) containing naphthol AS-BI phosphate, fast Garnet GBC solution and 7 mM tartrate buffer (pH 5.0) to conduct TRAP (tartrate-resistant acid phosphatase) staining.

[2] = test system: MG-63 cells; assay: Cytotoxicity test against osteoblast (MTT); type: cell-based, human
Experimental: In order examine the toxicities of the compounds of the Examples against osteoclast pregenitors, pregenitor cells were aliquotted onto a 96-well microplate at a density of 2×10^5 cells per well, treated with 2, 4 and 8 μM of the test compounds, respectively, and cultured for 48 hrs in α-MEM supplemented with 20 ng/ml of M-CSF (Peprotech, USA) using 37° C. incubator (5% CO2). At 3 hrs before the culture was finished, 50 μl of MTT (3-(4,5-dimethylthiazol-2-yl)-2,5-diphenyltetrazolium bromide) solution (50 μg/ml) was added to each well. Upon completion of the cell culture, the supernatant was removed, and the precipitated dye was reacted with 100 μl of isopropanol/0.04 N HCl at room temperature for 30 min to dissolve it. The absorbances of the wells were measured at 550 nm, and the relative absorbance of each well relative to that of the control (set as 100) is shown in Table 6.
In order to examine the toxicity of the compounds of the Examples against osteoblasts, human osteosarcoma-derived cell line, MG-63 (ATCC No. CRL-1427) cells were treated with 0.1, 0.3, 1.0 and 3.0 μM of the compounds of the Examples, and cultured in DMEM supplemented with 10% FBS (fetal bovine serum).

[3] = In vitro pharmacokinetics: metabolic stability in liver microsome; type: in vitro ADME; details: human liver microsome 1 mg/ml, 20 μM compound; for half-life at 20 µM: liver microsomes
Experimental: Metabolic stabilities of the compounds of the Examples were examined by employing microsome samples prepared from the human liver.
Each 20 μM of the compounds were reacted with 1 mg/ml of liver microsome and the half-lives and one-hour stabilities of the compounds were determined.

[4] = In vivo pharmacokinetics using female mice (serum concentration, HPLC); details: I.V.; for clearance / Half-life / Vd: mouse, serum, iv; for clearance: read-out: CL (clearance) (converted); for Half-life: read-out: Half-life (converted); for Vd: read-out: Vd (volume of distribution)
Experimental: Female mice each weighing […] were divided into groups of 5 mice each. The mice were anesthetized with ether, catheterized in their femoral artery and vein, respectively, and administered with 0.5 mg/kg body weight of compounds 234 and 274, and 5 mg/kg body weight of compounds 388, 404 and 415, respectively, via intravenous injection. Alternatively, 15 mg/kg body weight of compound 274 and 10 mg/kg body weight of compound 234 were orally administered to the mice.
At 0, 5, 10, 15 and 30 minutes and 1, 2, 4, 6, 9 and 12 hours after the intravenous injection, or at 0, 10, 20 and 40 minutes and 1, 2, 4, 6, 9 and 12 hours after the oral administration, 0.3 ml blood samples were taken from the mice through femoral artery. The blood samples were kept on an ice bath for 30 minutes and centrifuged at 3,000 rpm for 10 minutes to obtain a supernatant (serum). The supernatant samples were stored at −20° C.
Standard solution: Compounds 234, 274, 388, 404 and 415 were respectively dissolved in methanol to a concentration of 1 mg/ml to obtain stock solutions. The stock solutions were diluted with methanol to obtain standard solutions having concentrations of 40, 20, 10, 2, 1, 0.5, 0.2, 0.05 and 0.02 μg/ml, respectively.
Standard calibration curve: A stand calibration curve was prepared by employing calibration concentrations of 0.002, 0.005, 0.02, 0.05, 0.1, 0.2, 1, 2 and 4 μg/ml.
10 μl each of the standard solutions prepared above was added to 100 μl of normal serum sample and diluted 10 times. 250 μl of acetonitrile was added to the resulting dilution and the mixture was centrifuged for 10 minutes to obtain a supernatant. 300 μl of the supernatant was dried by evaporation under a nitrogen atmosphere and reconstituted by adding 50 μl of methanol. 20 μl of the resulting solution was analyzed by HPLC to prepare a standard calibration curve. HPLC was performed with Shimadzu ODS2 column (4.6×250 mm, 5 μm by employing a mixture of methanol/water (90/10 (v/v)) as the mobile phase at a flow rate of 1.2 ml/min, and measuring the absorbance at 240 nm.
Extraction: 100 μl of the serum sample obtained in (4-2-1) was put into a 1 ml microtube and 10 μl of methanol was added thereto. 250 μl of acetonitrile was added to the microtube and the mixture was centrifuged for 10 minutes to obtain a supernatant. 300 μl of the supernatant was dried by evaporation under a nitrogen atmosphere and reconstituted by adding 50 μl of methanol. 20 μl of the resulting solution was analyzed by the HPLC method as above.
Average concentrations of the compounds in the serum samples were plotted in a semi-log scale against the time lapsed after the administration, and the pharmacokinetic parameters were determined as a non-compartment open model by employing WinNonlin® program (Pharsight Corporation).

[5] = test system: osteoclasts; assay: Inhibitory effect on resorption activity of osteoclast (resorption pit area on calcium phosphate-coated plate); type: cell-based, mice; details: compared to control
Experimental: After finishing culture, the plate was washed with distilled water, and 50 μl/well of 5% sodium hypochlorite was added to the plate. The plate was let alone for 5 min, washed again with distilled water to remove the adherent cells, and dried at room temperature. Then, the area of formed resorption pits was calculated by means of Image Pro Plus software (Media Cybernetics Ver. 3.0).

[6] = test system: rats; assay: In vivo acute toxicity test (LD50); details: single dose, 2 weeks observation
Experimental: In order to determine the acute toxicities of the compounds prepared in Examples, 6-week old specific pathogen-free (SPF) rats each weighing […] were divided into groups of 10 rat each.
In case of subcutaneous administration, each of the compounds was dissolved in 5% PEG400 solution to a concentration of 20 mg/ml, the resulting solution was serially diluted with 5% PEG400 solution to concentrations of 5, 2.5, 1.25 and 0.625 mg/ml, and the dilutions were subcutaneously injected once to the rats at a dose of 10 ml/kg body weight.
In case of oral administration, each of the compounds was dissolved in soybean oil to a concentration of 180 mg/ml, the resulting solution was serially diluted with soybean oil to concentrations of 80, 20 and 5 mg/ml, and the dilutions were orally administered once to the rats at a dose of 20 ml/kg body weight. […]
During 2 weeks after the administration of the compounds, the death rate, clinical symptoms and weight changes of the rats were observed, and hematological and biochemical tests on blood samples were performed. Then, the rats were sacrificed and the internal organs were visually examined to check any abnormal signs in the organs of chest and abdomen.

Row | SMILES | inhibition at 0.1 µM [1] | inhibition at 0.3 µM [1] | inhibition at 1 µM [1] | inhibition at 3 µM [1] | relative absorbance (MTT) relative to control (set as 100) ([2]; 0.33 μM compound) | relative absorbance (MTT) relative to control (set as 100) ([2]; 1 μM compound) | relative absorbance (MTT) relative to control (set as 100) ([2]; 3 μM compound) | half-life at 20 µM [3] | further results
1 | CO/C=C(/C(=O)OC)c1ccc(Cl)cc1COc1cccc(N2CCOCC2)c1 [Compound No. 386, (E)-methyl-2-[2-((3-morpholinophenoxy)methyl)-4-chlorophenyl]-3-methoxyacrylate] | 100% | 100% | 100% | 100% | 101 | 69 | 68 | 40.7 min | –
2 | CO/C=C(/C(=O)OC)c1ccccc1COc1cccc(CN2CCOCC2)c1 [Compound No. 404, (E)-methyl-2-[2-((3-(morpholinomethyl)phenoxy)-methyl)phenyl]-3-methoxyacrylate] | – | 9% | 63% | 100% | 83 | 92 | 94 | 57.4 ± 2.3 min | AUC (area under the curve of blood concentration versus time) [4]: 97.2 ± 14.8 µg·h/mL; clearance [4]: 0.0567 mL/min; Half-life [4]: 612 ± 114 min; Vd [4]: 0.0462 ± 0.0064 L/kg
3 | CO/C=C(/C(=O)OC)c1ccccc1COc1cccc(N2CCCC2)n1 [Compound No. 415, (E)-methyl-2-[2-((6-(pyrrolidin-1-yl)pyridin-2-yloxy)-methyl)phenyl]-3-methoxyacrylate] | 5% | 57% | 100% | 100% | – | – | – | 24.9 min | AUC (area under the curve of blood concentration versus time) [4]: 176.4 ± 32.9 µg·h/mL; clearance [4]: 0.0317 mL/min; Half-life [4]: 647 ± 96.6 min; Vd [4]: 0.027 ± 0.0012 L/kg
4 | CO/C=C(/C(=O)OC)c1ccccc1COc1ccc(N(C)CC(C)C)cc1F [Compound No. 426, (E)-methyl-2-[2-((4-(N-isobutyl-N-methylamino)-2-fluorophenoxy)methyl)phenyl]-3-methoxyacrylate] | 25% | 100% | 100% | 100% | – | – | – | 42.7 ± 2.1 min | –
5 | CO/C=C(/C(=O)OC)c1ccccc1COc1ccc(C2OCCCO2)cc1 [compound 161] | – | – | – | – | – | – | – | – | Osteoclast formation inhibitory effects (%) ([1]; 0.3 μM): 19%; Osteoclast formation inhibitory effects (%) ([1]; 1.0 μM): 100%; Osteoclast formation inhibitory effects (%) ([1]; 3.0 μM): 100%; Reduction (%) of the resorption pit area of osteoclasts ([5]; 0.3 uM): 94%; Reduction (%) of the resorption pit area of osteoclasts ([5]; 1 uM): 100%; Reduction (%) of the resorption pit area of osteoclasts ([5]; 3 uM): 100%; Half-life [3]: 45.6 min; One-hour stability [3]: 40%
6 | CO/C=C(/C(=O)OC)c1ccccc1COc1cccc(C(C)F)c1 (centres unmarked) [compound 169] | – | – | – | – | – | – | – | – | LD50 ([6]; PO): >1000 mg/kg body weight; LD50 ([6]; SC): 10 mg/kg body weight
7 | CO/C=C(/C(=O)OC)c1ccccc1COc1cccc(N2CCN(C)CC2)c1 [compound 391] | – | 4% | 50% | 100% | 104 | 99 | 111 | 107 ± 18.6 min | –
8 | CO/C=C(/C(=O)OC)c1ccc(Cl)cc1COc1ccc(N2CCOCC2)cn1 [compound 394] | 0% | 98% | 100% | 100% | 113 | 105 | 110 | 55.5 ± 12 min | –
9 | CO/C=C(/C(=O)OC)c1ccccc1COc1ccc(N2CCCCC2)cc1 [compound 399] | 0% | 70% | 100% | 100% | 96 | 76 | 65 | 43 ± 1.8 min | –
10 | CO/C=C(/C(=O)OC)c1ccccc1COc1ccc(N2CCCCC2)c(F)c1 [compound 416] | 0% | 75% | 100% | 100% | – | – | – | 43.9 min | –
